Experimental data: patent US8796249B2, “TGR5 modulators and methods of use thereof” (Intercept Pharmaceuticals, Inc., priority 2008, dated 2014)

Experiments:
[1] = Biliary secretion, bile flow and metabolism in bile-fistula rat after duodenal (id) and femoral (iv) infusion; assay type: in vivo; settings: for choleretic effect (bile flow): bile fistula rat
Experimental: To evaluate the mode and efficiency of the intestinal absorption the analogues were administered both intravenously (femoral infusion) and orally (duodenal infusion) at the same dose and their biliary secretion rate was evaluated in bile fistula rat model. The differences in the area under the curve of the biliary secretion vs time between iv and id administration account of its intestinal absorption and give information about its biovailability.
The bile fistula rat model was developed at the University of Bologna Lab facilities. The compound 3A was administered at a dose of 1 μmol/kg/min (1 hour infusion) to a rat group via duodenal infusion (id). Rat have a bile fistula to collect bile samples at different times before and during the infusion. For duodenal infusion experiment 3 rats (250±10 g) were treated. Bile samples were collected every 15 minutes for four hours. In addition, 3 control rats were treated with saline solution under the same conditions for times and sampling (duodenal control rats).
Duodenal infusion starts after 30 min baseline bile collection and continues for one hour.
For femoral infusion experiment, 3 rats were treated. […] Femoral infusion starts after 75 minutes of steady-state and continues for 60 min. Bile samples were collected every 15 minutes for four hours. In addition, 3 rats were treated with saline solution under the same conditions for times and sampling (femoral control rats).
Rat bile samples were brought to room temperature, briefly stirred, and diluted 1:100 v/v (bile samples from duodenal orinfusion) and 1:100 or 1:200 v/v (bile samples from femoral infusion) with 15 mM ammonium acetate buffer (pH=5.0):acetonitrile=70:30 (v/v). Final solution was transferred in autosampler vials, and 10 μL was injected into the chromatographic column.
Bile rat samples were analyzed by liquid chromatography-tandem mass spectrometry (HPLC-MS/MS) using electrospray (ESI) source in negative ionization mode. For liquid chromatography a Waters Alliance 2695 separation module coupled with autosampler was used. Autosampler was maintained at 7° C. Separation was performed on a Synergi Hydro-RP C18 column (150×2.0 mm i.d., 4 μm particle size), protected by a SecurityGuard ODS 4×2.0 mm i.d. precolumn, both supplied from Phenomenex. […]. Nitrogen was used as nebulizer gas at 90 L/h flow rate and as desolvation gas at 930 L/h. Ion source block and desolvation temperatures were set respectively to 80° C. and 180° C. Capillary voltage was 3.0 kV. MassLynx software version 4.0 was used for data acquisition and processing. In addition, using mass spectrometry both in single MS or tandem MS/MS configuration experiments were performed to identify metabolites.
A 5-point calibration curve was daily prepared and injected in duplicate. Calibration samples were obtained in the 0.1 to 25 μmol/L concentration range prepared in mobile phase. Linear calibration curve parameters were obtained from the plot of the analyte peak area versus analyte concentration using a least squares regression analysis (weight=1/x^2). Correlation coefficients were ≧0.989.
The data refer to the secretion rate of the analogues recovered in bile as such after duodenal and femoral infusion at a dose of 1 umol/Kg/min. Major and minor metabolites are reported later.
For a preliminary screening the search of the possible metabolites has been performed on the basis of the expected compounds according to previous experiments and data and to the structure and physicochemical properties of the studied analogues.

[2] = test system: C57BL6J mice; assay: Diet-induced obesity mouse model; assay type: in vivo
Experimental: The goal of the study was to assess the therapeutic potency of compound 3A in a mouse model of diet-induced obesity. Compound 3A was administered via food administration for 16 weeks to male C57BL6J mice that were previously subjected for 10 weeks to a high fat diet.
For this study, male C57BL6J mice (5 weeks of age) were divided in 2 groups: one group of animals received chow diet to control the onset of obesity, one group of animals received a high fat diet. Compound 3A was tested on the animals that received the high fat diet (HFD). The animals are then analyzed during a period of 13 weeks. The groups were as follows: • 1: chow diet • 2: high fat diet • 3: high fat diet+3A • During the entire study, body weight and food intake were monitored twice weekly. • The period for the onset of obesity was 10 weeks. At the end of the 10 weeks, body composition was analyzed by dual energy X-ray absorptiometry (dexascan) and serum levels of transaminases, glucose, triglycerides, cholesterol, HDL-C, LDL-C and insulin were measured. […]
The Dexa analyses were performed by the ultra high resolution PIXIMUS Series Densitometer (0.18×0.18 mm pixels, GE Medical Systems, Madison, Wis., USA). Bone mineral density (BMD in g/cm^2) and body composition were determined by using the PIXIMUS software (version 1.4×, GE Medical Systems). […]

[3] = rat, duodenal infusion 1 umol/Kg/min 1 h, time 120 min
[4] = rat, duodenal infusion 1 umol/Kg/min 1 h, time 150 min
[5] = rat, duodenal infusion 1 umol/Kg/min 1 h, time 180 min
[6] = rat, duodenal infusion 1 umol/Kg/min 1 h, time 210 min
[7] = rat, duodenal infusion 1 umol/Kg/min 1 h, time 240 min
[8] = rat, duodenal infusion 1 umol/Kg/min 1 h, time 270 min
[9] = rat, duodenal infusion 1 umol/Kg/min 1 h, time 300 min
[10] = rat, femoral infusion 1 umol/Kg/min 1 h, time 90 min
[11] = rat, femoral infusion 1 umol/Kg/min 1 h, time 120 min
[12] = rat, femoral infusion 1 umol/Kg/min 1 h, time 150 min
[13] = rat, femoral infusion 1 umol/Kg/min 1 h, time 180 min
[14] = rat, femoral infusion 1 umol/Kg/min 1 h, time 210 min
[15] = rat, femoral infusion 1 umol/Kg/min 1 h, time 240 min

Structure (SMILES): CC[C@H]1[C@@H](O)[C@@H]2[C@H](C[C@H](O)[C@]3(C)[C@@H]([C@H](C)CCCS(=O)(=O)[O-])CC[C@@H]23)[C@@]2(C)CC[C@@H](O)C[C@@H]12.[Na+] [Compound 3A, 3α,7α,12α-trihydroxy-6α-ethyl-5β-cholan-24-sulfonate Sodium Salt]
- choleretic effect (bile flow) ([1]; duodenal infusion (id) 1 μmol/kg/min, 1 hour): moderate choleretic effect
- choleretic effect (bile flow) ([1]; femoral infusion (iv), 60 min): moderate choleretic effect
- hepatic and intestinal metabolism ([1]; bile-fistula rat, iv and id): not metabolized by the liver or by the intestine
- intestinal absorption ([1]; rat, after id administration, recovery in bile much lower than after iv): poorly absorbed by the intestine
- recovery in bile ([1]; rat, after iv administration): almost completely recovered in bile
- Conc. in bile [1, 3]: 370 µM
- Secretion (biliary) [1, 3]: 0.026 µmol/kg/min
- Conc. in bile [1, 4]: 900 µM
- Secretion (biliary) [1, 4]: 0.079 µmol/kg/min
- Conc. in bile [1, 5]: 1300 µM
- Secretion (biliary) [1, 5]: 0.101 µmol/kg/min
- Conc. in bile [1, 6]: 950 µM
- Secretion (biliary) [1, 6]: 0.061 µmol/kg/min
- Conc. in bile [1, 7]: 700 µM
- Secretion (biliary) [1, 7]: 0.043 µmol/kg/min
- Conc. in bile [1, 8]: 580 µM
- Secretion (biliary) [1, 8]: 0.039 µmol/kg/min
- Conc. in bile [1, 9]: 510 µM
- Secretion (biliary) [1, 9]: 0.029 µmol/kg/min
- Conc. in bile [1, 10]: 2600 µM
- Secretion (biliary) [1, 10]: 0.105 µmol/kg/min
- Conc. in bile [1, 11]: 7300 µM
- Secretion (biliary) [1, 11]: 0.588 µmol/kg/min
- Conc. in bile [1, 12]: 7500 µM
- Secretion (biliary) [1, 12]: 0.463 µmol/kg/min
- Conc. in bile [1, 13]: 6200 µM
- Secretion (biliary) [1, 13]: 0.363 µmol/kg/min
- Conc. in bile [1, 14]: 3400 µM
- Secretion (biliary) [1, 14]: 0.247 µmol/kg/min
- Conc. in bile [1, 15]: 1000 µM
- Secretion (biliary) [1, 15]: 0.045 µmol/kg/min
- body weight gain ([2]; HF-fed mice, compound in food, 0-9 weeks (FIG. 8)): blunted
- fat gain (body composition) ([2]; HFD mice, 5 weeks after treatment (FIG. 9)): reduces fat gain
- melting point: > 280 °C
